Values of other authors as cited in patent publication US20250195565A1 (Fempharma Europe, LLC, priority 2018, published 2025).

Test system: human vaginal smooth muscle cells
Details: zinc at a tissue level of 20 μM

SMILES: [Zn] [zinc]
- effect on production of extracellular components (collagen, elastin) by the muscle cells: beneficial effect
